In ChEMBL document CHEMBL3885861, “Open TG-GATES”:

Species: Rattus norvegicus
Experiment: Open TG-GATES - Regimen: Single
Assay type: toxicity, organism-based, Sprague-Dawley
Design: regimen Single, gender Male, age 6 weeks
Conditions: in vivo, po, 10 mg/kg, route gavage, dose level Low; for APTT / Bas / Eos / Fbg / Hb / Ht / Lym / MCH / MCHC / MCV / Mono / Neu / PT / Plat / RBC / Ret / WBC: tissue Blood; for KIDNEY_L / KIDNEY_R / KIDNEY_TOTAL: tissue Kidney; for LIVER: tissue Liver; for A/G / ALP / ALT / AST / BUN / CRE / Ca / Cl / DBIL / GLC / IP / K / LDH / Na / PL / RALB / TBIL / TC / TG / TP / gamma-GTP: tissue Plasma

SMILES: CC1=C(/C=C/C(C)=C/C=C/C(C)=C/CO)C(C)(C)CCC1 [RETINOL]
- TERMINAL_BW (3 h): 201.8 g
- APTT (3 h): 21.9 s
- Bas (3 h): 0%
- Eos (3 h): 0.8%
- Fbg (3 h): 307.4 mg/dL
- Hb (3 h): 13.1 g/dL
- Ht (3 h): 37.7%
- Lym (3 h): 81.4%
- MCH (3 h): 21.5 pg
- MCHC (3 h): 34.6%
- MCV (3 h): 62.2 fL
- Mono (3 h): 2.6%
- Neu (3 h): 14.8%
- PT (3 h): 15.9 s
- Plat (3 h): 124.2 x10_4/uL
- RBC (3 h): 606.4 x10_4/ul
- Ret (3 h): 8.8%
- WBC (3 h): 95.9 x10_2/uL
- KIDNEY_L (3 h): 0.9 g
- KIDNEY_R (3 h): 0.9 g
- KIDNEY_TOTAL (3 h): 1.8 g
- LIVER (3 h): 9.3 g
- A/G (3 h): 1.3
- ALP (3 h): 1940 IU/L
- ALT (3 h): 41.2 IU/L
- AST (3 h): 75.2 IU/L
- BUN (3 h): 13.4 mg/dL
- CRE (3 h): 0.1 mg/dL
- Ca (3 h): 10.8 mg/dL
- Cl (3 h): 106.6 meq/L
- DBIL (3 h): 0 mg/dL
- GLC (3 h): 171.6 mg/dL
- IP (3 h): 8.6 mg/dL
- K (3 h): 4.1 meq/L
- LDH (3 h): 253.6 IU/L
- Na (3 h): 141.6 meq/L
- PL (3 h): 160.6 mg/dL
- RALB (3 h): 3.2 g/dL
- TBIL (3 h): 0.006 mg/dL
- TC (3 h): 81.2 mg/dL
- TG (3 h): 123.4 mg/dL
- TP (3 h): 5.6 g/dL
- gamma-GTP (3 h): 2.2 IU/L
- TERMINAL_BW (6 h): 200 g
- APTT (6 h): 21 s
- Bas (6 h): 0%
- Eos (6 h): 1%
- Fbg (6 h): 312 mg/dL
- Hb (6 h): 13.5 g/dL
- Ht (6 h): 39.4%
- Lym (6 h): 80.4%
- MCH (6 h): 21.4 pg
- MCHC (6 h): 34.3%
- MCV (6 h): 62.3 fL
- Mono (6 h): 2.6%
- Neu (6 h): 15.4%
- PT (6 h): 15.6 s
- Plat (6 h): 119.1 x10_4/uL
- RBC (6 h): 632.2 x10_4/ul
- Ret (6 h): 8.1%
- WBC (6 h): 81.2 x10_2/uL
- KIDNEY_L (6 h): 0.9 g
- KIDNEY_R (6 h): 0.9 g
- KIDNEY_TOTAL (6 h): 1.9 g
- LIVER (6 h): 8.6 g
- A/G (6 h): 1.3
- ALP (6 h): 1760 IU/L
- ALT (6 h): 35.8 IU/L
- AST (6 h): 69.2 IU/L
- BUN (6 h): 9.4 mg/dL
- CRE (6 h): 0.1 mg/dL
- Ca (6 h): 11 mg/dL
- Cl (6 h): 107.4 meq/L
- DBIL (6 h): 0.008 mg/dL
- GLC (6 h): 180 mg/dL
- IP (6 h): 10.3 mg/dL
- K (6 h): 4.3 meq/L
- LDH (6 h): 223 IU/L
- Na (6 h): 142.8 meq/L
- PL (6 h): 143.8 mg/dL
- RALB (6 h): 3.1 g/dL
- TBIL (6 h): 0.016 mg/dL
- TC (6 h): 74.4 mg/dL
- TG (6 h): 98.4 mg/dL
- TP (6 h): 5.4 g/dL
- gamma-GTP (6 h): 0.8 IU/L
- TERMINAL_BW (9 h): 196.8 g
- APTT (9 h): 21.8 s
- Bas (9 h): 0%
- Eos (9 h): 0.6%
- Fbg (9 h): 296.8 mg/dL
- Hb (9 h): 13.2 g/dL
- Ht (9 h): 38.3%
- Lym (9 h): 78%
- MCH (9 h): 21.6 pg
- MCHC (9 h): 34.4%
- MCV (9 h): 62.9 fL
- Mono (9 h): 2.4%
- Neu (9 h): 18.4%
- PT (9 h): 15.6 s
- Plat (9 h): 128.6 x10_4/uL
- RBC (9 h): 610.2 x10_4/ul
- Ret (9 h): 7.6%
- WBC (9 h): 92.3 x10_2/uL
- KIDNEY_L (9 h): 0.9 g
- KIDNEY_R (9 h): 0.9 g
- KIDNEY_TOTAL (9 h): 1.8 g
- LIVER (9 h): 7.8 g
- A/G (9 h): 1.3
- ALP (9 h): 1939.6 IU/L
- ALT (9 h): 34.8 IU/L
- AST (9 h): 70.6 IU/L
- BUN (9 h): 9.6 mg/dL
- CRE (9 h): 0.1 mg/dL
- Ca (9 h): 10.9 mg/dL
- Cl (9 h): 107.4 meq/L
- DBIL (9 h): 0.004 mg/dL
- GLC (9 h): 187 mg/dL
- IP (9 h): 10.6 mg/dL
- K (9 h): 4 meq/L
- LDH (9 h): 242.8 IU/L
- Na (9 h): 141.4 meq/L
- PL (9 h): 127.4 mg/dL
- RALB (9 h): 3 g/dL
- TBIL (9 h): 0.012 mg/dL
- TC (9 h): 69.2 mg/dL
- TG (9 h): 50.2 mg/dL
- TP (9 h): 5.3 g/dL
- gamma-GTP (9 h): 2.8 IU/L
- TERMINAL_BW (24 h): 208.4 g
- APTT (24 h): 21.5 s
- Bas (24 h): 0%
- Eos (24 h): 1%
- Fbg (24 h): 273.4 mg/dL
- Hb (24 h): 13.2 g/dL
- Ht (24 h): 38.4%
- Lym (24 h): 80.2%
- MCH (24 h): 21.4 pg
- MCHC (24 h): 34.5%
- MCV (24 h): 62.2 fL
- Mono (24 h): 3.2%
- Neu (24 h): 15%
- PT (24 h): 16.2 s
- Plat (24 h): 123.1 x10_4/uL
- RBC (24 h): 618 x10_4/ul
- Ret (24 h): 7.5%
- WBC (24 h): 81 x10_2/uL
- KIDNEY_L (24 h): 1 g
- KIDNEY_R (24 h): 1 g
- KIDNEY_TOTAL (24 h): 2 g
- LIVER (24 h): 9.8 g
- A/G (24 h): 1.4
- ALP (24 h): 1455.4 IU/L
- ALT (24 h): 44.6 IU/L
- AST (24 h): 78.4 IU/L
- BUN (24 h): 16.8 mg/dL
- CRE (24 h): 0.2 mg/dL
- Ca (24 h): 10.6 mg/dL
- Cl (24 h): 106.8 meq/L
- DBIL (24 h): 0.002 mg/dL
- GLC (24 h): 187.4 mg/dL
- IP (24 h): 6.9 mg/dL
- K (24 h): 4.5 meq/L
- LDH (24 h): 318.8 IU/L
- Na (24 h): 141.6 meq/L
- PL (24 h): 135.2 mg/dL
- RALB (24 h): 3.1 g/dL
- TBIL (24 h): 0.002 mg/dL
- TC (24 h): 65 mg/dL
- TG (24 h): 114.6 mg/dL
- TP (24 h): 5.4 g/dL
- gamma-GTP (24 h): 1.6 IU/L
